For ten molecules, EC50 and EC90 results are on record in ChEMBL document CHEMBL5661943, “ASAP - In vitro antiviral effect” (2024).

For experiment [1], the system named is Zika virus. Nature of the experiment: Functional CPE-based assay to measure dose dependent changes in antiviral-drug inhibitory efficacy against Zika virus MR766 in Vero E6 miRFP670 cells (cotreated with P-gp inhibitor, CP100356). Cells are treated with antiviral candidates that are serially diluted. EC50 is reported via analysis of MTS assay as a readout of CPE. The assay has been performed by KU Leuven. It is filed as organism-based, Chlorocebus sabaeus, Vero C1008. Particulars: for EC90: Baseline response 0 %, Maximum response 100 %, P-gp concentration 500 nM, P-gp inhibitor CP100356.

The test system of experiment [2] is dengue virus type 2. Put plainly: Functional assay to measure dose dependent changes in antiviral-drug inhibitory efficacy against Dengue virus type 2 New Guinea C in Vero E6 miRFP670 cells (cotreated with P-gp inhibitor, CP100356). Cells are treated with antiviral candidates that are serially diluted, following infection, cells are fixed. EC50 is reported via analysis of fluorescence intensity using high-content imager. The …. The settings on record: for EC90: P-gp concentration 500 nM, P-gp inhibitor CP100356. Format: organism-based, Chlorocebus sabaeus, Vero C1008.

For experiment [3], the system named is dengue virus type 2. Nature of the experiment: Functional immunofluorescence assay to measure dose dependent changes in antiviral-drug inhibitory efficacy against Dengue virus type 2 Thailand/16681/84 in Vero E6/TMPRSS2 cells (cotreated with P-gp inhibitor, Elacridar). Cells are treated with antiviral candidates that are serially diluted, following infection, cells are fixed. EC50 is reported via analysis of immunofluorescence staining. The assay has been performed by Icahn School of Medicine at Mount Sinai. Format: organism-based, Chlorocebus sabaeus, VeroE6/TMPRSS2. The settings on record: Dengue virus.

In experiment [4] the test system is Zika virus. Nature of the experiment: EC50 is reported via analysis of immunofluorescence staining. The assay has been performed by Icahn School of Medicine at Mount Sinai. It is filed as functional, organism-based, Chlorocebus sabaeus, VeroE6/TMPRSS2. The settings on record: for EC90: P-gp concentration 2 uM, P-gp inhibitor Elacidar.

“And” between values parts separate entries of the source, which are not always exact repeats. Identical values can stand only once.

Turning to `O=C(NC1CCOCC1)[C@H](Nc1ccc2c(c1)CNC2)c1cc(Cl)cc(C2CC2)c1`, the EC50 (usually the concentration that produces a half-maximal response) was 3.19 µM in experiment [1] (Zika virus, Vero C1008); 36 µM in experiment [2] (Dengue virus, Vero C1008); above 5.56 µM in experiment [3] (VeroE6/TMPRSS2). Besides, the EC90 – broadly, the concentration needed for an effect of 90% – in experiment [1] (Zika virus, Vero C1008, EC90 CI (lower) 0.059 uM, EC90 CI (upper) 333.672 uM, Hill slope 6.678, Maximum measured 170.178 %, Minimum measured 3.055 %, R squared 0.499) was 4.44 µM; in experiment [2] (Dengue virus, Vero C1008, Baseline response 0 %, Hill slope -0.982, Maximum measured 114.445 %, Maximum response 100 %, Minimum measured 34.266 %, R squared 0.594), above 50 µM; in experiment [3] (VeroE6/TMPRSS2, Maximum measured 137.73 %, Minimum measured 84.756 %, P-gp concentration 2 uM, P-gp inhibitor Elacidar), above 5.56 µM; in experiment [4] (Baseline response 0 %, Hill slope -0.296, Maximum measured 102.901 %, Maximum response 100 %, Minimum measured 72.878 %, R squared 0.169), above 16.7 µM; in experiment [4] (Baseline response 0 %, Hill slope -0.385, Maximum measured 147.213 %, Maximum response 4776.39 %, Minimum measured 30.718 %, R squared 0.741), below 0.023 µM.
With `O=C(NCC(F)F)[C@H](Nc1ccc2c(c1)CNC2)c1cc(Cl)cc(C2CC2)c1`, the EC90 in experiment [1] (EC90 CI (lower) 0 uM, EC90 CI (upper) 0 uM, Hill slope 19.422, Maximum measured 104.146 %, Minimum measured 1.001 %, R squared 0.972) is 3.54 µM; in experiment [1] (EC90 CI (lower) 1.312 uM, EC90 CI (upper) 1.931 uM, Hill slope 6.18, Maximum measured 105.591 %, Minimum measured 3.511 %, R squared 0.974) it was 1.59 µM; in experiment [1] (EC90 CI (lower) 26.105 uM, EC90 CI (upper) 61.789 uM, Hill slope 1.533, Maximum measured 103.939 %, Minimum measured 1.936 %, R squared 0.959), 40.2 µM; in experiment [2] (Dengue virus, Vero C1008, Maximum measured 140.556 %, Minimum measured 63.358 %), above 50 µM; in experiment [2] (Dengue virus, Vero C1008, Maximum measured 143.73 %, Minimum measured 67.897 %), above 25 µM; in experiment [2] (Dengue virus, Vero C1008, Baseline response 0 %, Hill slope -0.993, Maximum measured 109.944 %, Maximum response 100 %, Minimum measured 57.337 %, R squared 0.512), above 50 µM. Besides, the EC90 in experiment [3] (VeroE6/TMPRSS2, Maximum measured 212.671 %, Minimum measured 62.173 %, P-gp concentration 2 uM, P-gp inhibitor Elacidar) is above 50 µM; in experiment [4] (Baseline response 0 %, Hill slope -0.396, Maximum measured 99.851 %, Maximum response 100 %, Minimum measured 40.832 %, R squared 0.557), above 5.56 µM; in experiment [4] (Baseline response 0 %, Hill slope -0.815, Maximum measured 101.881 %, Maximum response 50 %, Minimum measured 25.102 %, R squared 0.285), above 5.56 µM; in experiment [4] (Zika virus, VeroE6/TMPRSS2, Maximum measured 91.336 %, Minimum measured 34.975 %), above 1.85 µM; in experiment [4] (Zika virus, VeroE6/TMPRSS2, Baseline response 0 %, Hill slope -0.205, Maximum measured 120.59 %, Maximum response 100 %, Minimum measured 43.549 %, R squared 0.084), above 5.56 µM. The EC50 in experiment [1] (vero c1008) is 9.58 µM and 3.16 µM and 1.11 µM; in experiment [2] (Dengue virus, Vero C1008) it was above 50 µM; in experiment [2] (vero c1008), above 25 µM; in experiment [3] (VeroE6/TMPRSS2), above 50 µM.
On to `NCCCCc1ccc(NC(=O)c2cc(Cl)cc(NC(=O)OCc3ccccc3)c2)cc1`, for which the EC50 is 4.18 µM in experiment [2] (Dengue virus, Vero C1008); above 5.56 µM in experiment [3] (VeroE6/TMPRSS2); above 5.56 µM in experiment [4] (Zika virus, VeroE6/TMPRSS2). Besides, the EC90 in experiment [2] (Dengue virus, Vero C1008, Baseline response 0 %, EC90 CI (lower) 1.854 uM, EC90 CI (upper) 4.634 uM, Hill slope -6.186, Maximum measured 92.478 %, Maximum response 100 %, Minimum measured 7.244 %, R squared 0.772) is 5.96 µM; in experiment [3] (VeroE6/TMPRSS2, Maximum measured 145.088 %, Minimum measured 103.355 %, P-gp concentration 2 uM, P-gp inhibitor Elacidar), above 5.56 µM; in experiment [4] (Zika virus, VeroE6/TMPRSS2, Maximum measured 140.797 %, Minimum measured 81.401 %) it was above 5.56 µM.
As for `CC(C)OC(=O)Nc1cc(Cl)cc(C(=O)Nc2cccc(CN)c2)c1`, the EC50 is above 6.25 µM in experiment [2] (Dengue virus, Vero C1008); above 16.7 µM in experiment [3] (VeroE6/TMPRSS2); above 16.7 µM in experiment [4] (Zika virus, VeroE6/TMPRSS2). For the same molecule, the EC90 in experiment [2] (Dengue virus, Vero C1008, Maximum measured 143.842 %, Minimum measured 98.266 %) is above 6.25 µM; in experiment [3] (VeroE6/TMPRSS2, Baseline response 0 %, Hill slope -10.347, Maximum measured 131.012 %, Maximum response 100 %, Minimum measured 66.05 %, P-gp concentration 2 uM, R squared 0.241, P-gp inhibitor Elacidar) it was above 16.7 µM; in experiment [4] (Zika virus, VeroE6/TMPRSS2, Maximum measured 132.205 %, Minimum measured 71.008 %), above 16.7 µM.
Regarding `NCc1cccc(NC(=O)c2cc(Cl)cc(-n3cccc3)c2)c1`, the EC50 in experiment [2] (Dengue virus, Vero C1008) was 14.4 µM; in experiment [3] (VeroE6/TMPRSS2) it was 13.9 µM; in experiment [4] (Zika virus, VeroE6/TMPRSS2) it was above 5.56 µM. In addition, the EC90 is 17.2 µM in experiment [2] (Dengue virus, Vero C1008, Baseline response 0 %, EC90 CI (lower) 7.414 uM, EC90 CI (upper) 19.74 uM, Hill slope -12.44, Maximum measured 108.218 %, Maximum response 100 %, Minimum measured 0.325 %, R squared 0.952); above 16.7 µM in experiment [3] (VeroE6/TMPRSS2, Baseline response 0 %, Hill slope -2.713, Maximum measured 77.83 %, Maximum response 65.791 %, Minimum measured 24.724 %, P-gp concentration 2 uM, R squared 0.597, P-gp inhibitor Elacidar); above 5.56 µM in experiment [4] (Zika virus, VeroE6/TMPRSS2, Maximum measured 124.363 %, Minimum measured 74.851 %).
In the case of `O=C(Nc1ccc2c(c1)CNC2)c1cc(Br)cc2[nH]c(Cc3ccccc3)nc12`, the EC50 in experiment [2] (Dengue virus, Vero C1008) was 2.23 µM; in experiment [3] (VeroE6/TMPRSS2), above 16.7 µM; in experiment [4] (Zika virus, VeroE6/TMPRSS2) it was above 1.85 µM. Further, the EC90 in experiment [2] (Dengue virus, Vero C1008, Baseline response 0 %, Hill slope -0.825, Maximum measured 88.647 %, Maximum response 100 %, Minimum measured 23.774 %, R squared 0.436) was above 6.25 µM; in experiment [3] (VeroE6/TMPRSS2, Maximum measured 134.005 %, Minimum measured 55.42 %, P-gp concentration 2 uM, P-gp inhibitor Elacidar), above 16.7 µM; in experiment [4] (Zika virus, VeroE6/TMPRSS2, Maximum measured 133.577 %, Minimum measured 80.808 %), above 1.85 µM.
As for `CNC(=O)[C@H](Nc1ccc2c(c1)CNC2)c1cc(Cl)cc(C2CC2)c1`, the EC50 was 3.04 µM in experiment [1] (Zika virus, Vero C1008); above 50 µM in experiment [3] (VeroE6/TMPRSS2); above 16.7 µM in experiment [4] (veroe6/tmprss2). Moreover, the EC90 in experiment [1] (Zika virus, Vero C1008, EC90 CI (lower) 0.152 uM, EC90 CI (upper) 118.856 uM, Hill slope 6.595, Maximum measured 181.208 %, Minimum measured 1.929 %, R squared 0.623) was 4.25 µM; in experiment [3] (VeroE6/TMPRSS2, Maximum measured 162.297 %, Minimum measured 85.868 %, P-gp concentration 2 uM, P-gp inhibitor Elacidar), above 50 µM; in experiment [4] (Zika virus, VeroE6/TMPRSS2, Maximum measured 135.998 %, Minimum measured 64.507 %), above 16.7 µM; in experiment [4] (Zika virus, VeroE6/TMPRSS2, Baseline response 0 %, Hill slope -0.359, Maximum measured 94.864 %, Maximum response 100 %, Minimum measured 60.283 %, R squared 0.436) it was above 5.56 µM.
Turning to `O=C(Nc1cc(Cl)cc([C@H]2CN(Cc3ccccc3)C[C@@H]2c2cccc(-c3nn[nH]n3)c2)c1)OCc1ccccc1`, the EC50 in experiment [2] (Dengue virus, Vero C1008) was determined as 7.89 µM; in experiment [3] (VeroE6/TMPRSS2), 3.42 µM; in experiment [4] (Zika virus, VeroE6/TMPRSS2) it was 7.98 µM. Moreover, the EC90 in experiment [2] (Dengue virus, Vero C1008, Baseline response 0 %, EC90 CI (lower) 5.235 uM, EC90 CI (upper) 7.261 uM, Hill slope -8.911, Maximum measured 94.205 %, Maximum response 100 %, Minimum measured 1.534 %, R squared 0.94) is 10.1 µM; in experiment [3] (VeroE6/TMPRSS2) it was 5.71 µM; in experiment [4] (Zika virus, VeroE6/TMPRSS2, Baseline response 15.017 %, Hill slope -78.318, Maximum measured 79.355 %, Maximum response 65.758 %, Minimum measured 8.182 %, R squared 0.629), 8.21 µM.
Regarding `CC[C@H](Cc1nnn[nH]1)c1ccc(NC(=O)[C@H]2[C@H]3CCCCC[C@H]3[C@H]2NC(=O)OCc2ccccc2)cc1`, the EC50 is 16.1 µM in experiment [3] (VeroE6/TMPRSS2) and above 50 µM in experiment [4] (Zika virus, VeroE6/TMPRSS2). Further, the EC90 is 44.8 µM in experiment [3] (VeroE6/TMPRSS2) and above 50 µM in experiment [4] (Zika virus, VeroE6/TMPRSS2, Baseline response 0 %, Hill slope -0.151, Maximum measured 102.715 %, Maximum response 100 %, Minimum measured 55.5 %, R squared 0.202).
Turning to `NCc1cccc(NC(=O)[C@@H](NC(=O)OCc2ccccc2)c2ccc(Br)c(Cl)c2)c1`, the EC50 in experiment [3] (VeroE6/TMPRSS2) was above 5.56 µM; in experiment [4] (Zika virus, VeroE6/TMPRSS2) it was 0.557 µM. In addition, the EC90 in experiment [3] (VeroE6/TMPRSS2, Maximum measured 72.758 %, Minimum measured 24.513 %, P-gp concentration 2 uM, P-gp inhibitor Elacidar) is above 5.56 µM; in experiment [4] (Zika virus, VeroE6/TMPRSS2, Baseline response 0 %, Hill slope -0.711, Maximum measured 91.358 %, Maximum response 100 %, Minimum measured 2.864 %, R squared 0.54), above 5.56 µM.
